For this assay, the system named is HEK293T cells. The assay is described as follows: Fluorescence imaging of RDP-1 and RDP-2 with HEK293T cells. In kind it is cell-based, human. The conditions noted are these: for change in depalmitoylation activity from RDP-1: 10 μM inhibitor 30 min. As to the method:
HEK293T were plated with […] of DMEM (Gibco, Gaithersburg, Md., United States of America; High Glucose, Glutamax, 10% FBS) a four well chambered imaging dish (D35C4-20-1.5-N, Cellvis, Mountain View, Calif., United States of America) which were precoated with 4 μg Poly-D-lysine (30-70 kilodalton (KDa), Alfa Aesar, Haverhill, Mass., United States of America) for 2 h at room temperature or overnight at 4° C. and grown to ca. 80% confluence prior to imaging. 30 min before the addition of the RDP, the cell culture media was removed and cells were washed with 500 μL of serum-free DMEM (Gibco, Gaithersburg, Md., United States of America, High Glucose, Glutamax, no FBS). The media was then replaced with 500 μL of serum-free DMEM containing 100 nM Mitotracker Deep Red (Thermo Fisher Scientific, Waltham, Mass., United States of America; to assist in focusing and processing) and either 0.1% DMSO carrier as a control or Palm B, ML348, or ML349 in DMSO and incubated for 30 min at 37° C. and 5% CO2. The media was removed, the cells were washed with 500 μL of Live Cell Imaging Solution (Thermo Fisher Scientific, Waltham, Mass., United States of America), and 500 μL of 1 μM RDP-1 or RDP-2 along with the appropriate inhibitor or DMSO as control in Live Cell Imaging Solution was added to each well. After incubation for 10 min at 37° C. and 5% CO2, the cells were washed with 500 μL Live Cell Imaging Solution and 500 μL of Live Cell Imaging Solution containing DMSO or the appropriate inhibitor was added to the cells immediately before images were obtained on an inverted epi-fluorescence microscope (Olympus IX83; Olympus Corporation, Tokyo, Japan) attached with EMCCD camera (Photometrics EVOLVE™ Delta; Photometrics, Tucson, Ariz., United States of America) with 40× oil objective (N/A 1.3) for RDP-1 (excitation filter 1 430/24 nm, dichroic chroma 89007, emission filter 1 470/24 nm, exposure time 100 ms, EM gain 80, excitation filter 2 480/20 nm, dichroic chroma 49014, emission filter 2 575/40 nm, exposure time 70 ms, EM gain 50) or for RDP-2 (excitation filter 1 430/24 nm, dichroic chroma 89007, emission filter 1 470/24 nm, exposure time 70 ms, EM gain 50, excitation filter 2 480/20, dichroic chroma 49014, emission filter 2 575/40 nm, exposure time 50 ms, EM gain 30), brightfield (exposure time 50 ms, EM gain 30), and MitoTracker Deep Red: (excitation filter 640/30 nm, emission filter 705/72 nm, dichroic chroma 89016, exposure time 15 ms, EM gain 15). Analyses were performed in ImageJ as described below. Each experiment was repeated at least three separate times with identical results.
The probe channel data were expressed as a ratio of the blue channel divided by the green channel and normalized to the average fluorescence intensity of the control conditions. To eliminate errors from autofluorescence, the images were thresholded using the bluer channel images at the same minimum level that included the maximum number of cells in focus (as determined visually by the mitocondrial dye) while limiting the signal from areas where cells are not present. The average value of all nonzero pixels from the blue channel:green channel ratio image were calculated in ImageJ for three different measurements from each experiment. The percent deprotected was estimated by imaging RDP-1/2 in buffer (20 mM HEPES, 150 mM NaCl, 0.1% Triton X-100, pH 7.4, 0.1% DMSO) and for dye deprotected with 20 mM DTT in buffer (20 mM HEPES, 150 mM NaCl, 0.1% Triton X-100, pH 7.4, 0.1% DMSO) for 1 h at room temperature before aliquoted into individual tubes and stored at −80° C. A fresh aliquot of the solution was thawed for each experiment and diluted to 250 nM (RDP-1) or 500 nM (RDP-2) in buffer (20 mM HEPES, 150 mM NaCl, 0.1% Triton X-100, pH 7.4, 10 mM DTT) and allowed to equilibrate for 30 m before being imaged. […]

As for `COc1ccc(N2CCN(C(=O)c3cc4c(s3)-c3ccccc3S(=O)(=O)C4)CC2)cc1` [ML349], the “increase in depalmitoylation activity, RDP-2” value (5 μM ML349 30 min, 1 μM RDP-2) is recorded as “about 12%”. Moreover, the “change in depalmitoylation activity from RDP-1” value (1 μM RDP-1) is given as “slight increase”.

`CCCCCCCCCC[C@@H]1C(=O)O[C@H]1CCc1ccc(OC)c(OC)c1` [PalmB, palmostatin B]: the “decrease of measured depalmitoylation activity, RDP-1” value (20 μM PalmB 30 min pretreatment, 1 μM RDP-1) is on record as “almost in half”. Besides, for the setting “20 μM PalmB 30 min pretreatment, 1 μM RDP-2”, the “decrease of measured depalmitoylation activity, RDP-2” value is given as “almost in half”.

As to `O=C(CN1CCN(C(=O)c2ccco2)CC1)Nc1cc(C(F)(F)F)ccc1Cl` [ML348], the “decrease in depalmitoylation activity, RDP-2” value (5 μM ML348 30 min, 1 μM RDP-2) is listed as “about 30%”. Further, the “change in depalmitoylation activity from RDP-1” value (1 μM RDP-1) is listed as “slight increase”.

Values taken from patent US10413583B2, “Synthetic substrates for enzymes that catalyze reactions of modified cysteines and related methods” (The University of Chicago, priority 2016, dated 2019).
